The source of these data is patent US20240270701A1, “BETA ADRENERGIC AGONIST AND METHODS OF USING THE SAME” (Curasen Therapeutics, Inc., priority 2021, published 2024).

The target of one experiment is T1, B1-AR (Homo sapiens, UniProt P08588).
T1 construct: expressed in transfected cells; host or cells: CHO-K1
The experiment is described as follows: cAMP Gs dynamic HTRF assay, cells expressing beta-adrenergic receptor (CHO-K1), B1-AR. The format is cell-based. The following applies: for EC50: cAMP HTRF, read-out: pEC50 [B1-AR] (converted); for Emax: relative to full agonist isoproterenol, read-out: Emax (% iso) (%) [B1-AR]. For orientation: TR-FRET usually uses a lanthanide donor and a delayed reading to cut background.

The target in a further experiment is T2, B2-AR (Homo sapiens, UniProt P07550).
T2 construct: expressed in transfected cells; host or cells: CHO-K1
T2 sequence (P07550 whole entry, species assumed): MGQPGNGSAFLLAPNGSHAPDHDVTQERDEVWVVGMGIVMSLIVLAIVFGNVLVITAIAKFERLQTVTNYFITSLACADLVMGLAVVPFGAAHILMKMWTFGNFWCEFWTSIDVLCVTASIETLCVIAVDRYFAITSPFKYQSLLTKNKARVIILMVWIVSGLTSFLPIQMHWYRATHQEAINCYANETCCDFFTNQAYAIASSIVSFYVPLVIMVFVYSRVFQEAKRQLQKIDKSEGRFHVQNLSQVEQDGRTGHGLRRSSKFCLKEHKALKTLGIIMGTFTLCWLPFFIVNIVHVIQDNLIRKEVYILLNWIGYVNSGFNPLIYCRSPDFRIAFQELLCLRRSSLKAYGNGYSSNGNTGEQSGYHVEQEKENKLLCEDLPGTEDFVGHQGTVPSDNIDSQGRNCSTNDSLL
The experiment is described as follows: cAMP Gs dynamic HTRF assay, cells expressing beta-adrenergic receptor (CHO-K1), B2-AR. The format is cell-based. The following applies: for EC50: cAMP HTRF, read-out: pEC50 [B2-AR] (converted); for Emax: relative to full agonist isoproterenol, read-out: Emax (% iso) (%) [B2-AR].

Where two headings read alike, the source gives them in different places.

T1 sequence (P08588 whole entry, species assumed): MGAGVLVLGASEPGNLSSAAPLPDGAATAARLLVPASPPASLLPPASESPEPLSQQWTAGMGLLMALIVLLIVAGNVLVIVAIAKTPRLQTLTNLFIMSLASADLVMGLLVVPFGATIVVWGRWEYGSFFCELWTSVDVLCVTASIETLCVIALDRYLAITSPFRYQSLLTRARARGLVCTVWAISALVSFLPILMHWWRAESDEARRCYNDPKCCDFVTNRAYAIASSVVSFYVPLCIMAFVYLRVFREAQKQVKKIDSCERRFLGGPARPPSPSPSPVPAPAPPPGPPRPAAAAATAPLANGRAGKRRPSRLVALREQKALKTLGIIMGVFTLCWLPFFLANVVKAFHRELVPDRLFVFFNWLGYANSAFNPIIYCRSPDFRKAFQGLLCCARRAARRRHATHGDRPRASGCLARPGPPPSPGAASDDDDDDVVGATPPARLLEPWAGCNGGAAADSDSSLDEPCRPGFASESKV

Broadly, the Emax is the size of the effect at its maximum, as opposed to the concentration needed. As to `CC1(NC[C@H](O)c2cncc3[nH]ncc23)CCC1` [I-156], on B1-AR, the EC50 is 0.1 to 1 µM and the maximal effect (Emax) lay in the range of 70 to 90%. For the same compound, on B2-AR (CHO-K1 cells), the EC50 is 0.01 to 0.1 µM and the maximal effect (Emax) was more than 90%.

In the case of `CC1(NC[C@H](O)c2cc(C#N)cc3[nH]ncc23)CCC1` [I-157], the figures for the EC50 on B1-AR and on B2-AR (CHO-K1 cells) were 0.1 to 1 µM and 0.01 to 0.1 µM, respectively. For the same compound, the maximum response (Emax) was 70 to 90% at B1-AR and more than 90% on B2-AR (CHO-K1, CHO-K1 cells).

Take `O[C@@H](CNC1CCC1)c1cncc2[nH]ncc12` [I-158]: at B1-AR, the EC50 was 0.1 to 1 µM and the Emax is more than 90%. On B2-AR (CHO-K1 cells), the EC50 is 0.1 to 1 µM and the Emax was more than 90%.

In the case of `CC(C)NC[C@H](O)c1cncc2[nH]ncc12` [I-159], the EC50 on B1-AR and on B2-AR (CHO-K1 cells) was 0.1 to 1 µM each time. In addition, the results for the maximal response (Emax) at B1-AR and at B2-AR (CHO-K1 cells) were 70 to 90% and more than 90%, respectively.

Turning to `CC(C)CNC[C@H](O)c1cc(C#N)cc2[nH]ncc12` [I-160], the EC50 on B1-AR and on B2-AR (CHO-K1 cells) was 0.1 to 1 µM in each case. Moreover, the maximum response (Emax) at B1-AR fell in the range of 70 to 90%; on B2-AR (CHO-K1, CHO-K1 cells) it was 70 to 90%.

`CC(C)NC[C@H](O)c1cc(C#N)cc2[nH]ncc12` [I-161]: on B1-AR, the EC50 is 0.01 to 0.1 µM and the maximal effect (Emax) is more than 90%. For the same compound, on B2-AR (CHO-K1 cells), the EC50 is 0.01 to 0.1 µM and the maximal effect (Emax) is more than 90%.

As for `CC(C)(CO)NC[C@H](O)c1cncc2[nH]ncc12` [I-162], on B1-AR, the EC50 was more than 1 µM and the Emax was more than 90%. Besides, on B2-AR (CHO-K1 cells), the EC50 is 0.1 to 1 µM and the maximum response (Emax) is more than 90%.

`CC(C)CNC[C@H](O)c1cncc2[nH]ncc12` [I-163]: the EC50 on B1-AR and at B2-AR (CHO-K1 cells) was more than 1 µM in each case. Also, the Emax at B1-AR lay within 70 to 90%; at B2-AR (CHO-K1 cells), 50 to 70%.

For the compound `O[C@@H](CNC1CC1)c1cncc2[nH]ncc12` [I-164], at B1-AR, the EC50 is 0.1 to 1 µM and the Emax was 70 to 90%. On B2-AR (CHO-K1 cells), the EC50 is 0.1 to 1 µM and the Emax was more than 90%.

On to `CCC(C)(C)NC[C@H](O)c1cccnc1C` [I-165], for which the EC50 on B1-AR and on B2-AR (CHO-K1 cells) was 0.1 to 1 µM each time. For the same compound, the Emax was 70 to 90% on B1-AR and 70 to 90% on B2-AR (CHO-K1, CHO-K1 cells).

In the case of `Cc1n[nH]c2cccc([C@@H](O)CNC3CCC3)c12` [I-166], the EC50 is 0.1 to 1 µM on B1-AR and 0.01 to 0.1 µM on B2-AR (CHO-K1 cells). The Emax at B1-AR is 50 to 70%; at B2-AR (CHO-K1 cells), 70 to 90%.

With `Cc1n[nH]c2cccc([C@@H](O)CNC3CC3)c12` [I-167], the EC50 at B1-AR was more than 1 µM; at B2-AR (CHO-K1 cells) it was 0.1 to 1 µM. Besides, the Emax lay in the range of 70 to 90% at B1-AR and 70 to 90% on B2-AR (CHO-K1, CHO-K1 cells).

Take `Cc1n[nH]c2cccc([C@@H](O)CNC3(C)CCC3)c12` [I-168]: on B1-AR, the EC50 is 0.01 to 0.1 µM and the Emax lay within 70 to 90%. At B2-AR (CHO-K1 cells), the EC50 was less than 0.01 µM and the Emax was 70 to 90%.

Consider `Cc1n[nH]c2cccc([C@@H](O)CNC3(C)CC3)c12` [I-169], for which the EC50 is 0.1 to 1 µM on B1-AR and 0.01 to 0.1 µM at B2-AR (CHO-K1 cells). The maximal response (Emax) on B1-AR and at B2-AR (CHO-K1 cells) was 70 to 90% throughout.

With `Cc1n[nH]c2cccc([C@@H](O)CNC(C)C)c12` [I-170], at B1-AR, the EC50 was 0.1 to 1 µM and the Emax was 70 to 90%. In addition, on B2-AR (CHO-K1 cells), the EC50 was 0.01 to 0.1 µM and the maximal response (Emax) is 70 to 90%.

For the compound `CCC(C)(C)NC[C@H](O)c1cc(Cl)c(N)nc1C` [I-171], the EC50 on B1-AR is 0.01 to 0.1 µM; at B2-AR (CHO-K1 cells) it was less than 0.01 µM. Besides, the Emax at B1-AR is 70 to 90%; at B2-AR (CHO-K1, CHO-K1 cells) it was more than 90%.

For `CCc1n[nH]c2cccc([C@@H](O)CNC(C)(C)C)c12` [I-172], the EC50 at B1-AR and on B2-AR (CHO-K1 cells) was 0.1 to 1 µM throughout. Moreover, the values for the Emax at B1-AR and at B2-AR (CHO-K1 cells) were 70 to 90% and 50 to 70%, respectively.

For `Cc1n[nH]c2cccc([C@@H](O)CNC(C)(C)CO)c12` [I-173], the EC50 at B1-AR and on B2-AR (CHO-K1 cells) was 0.1 to 1 µM each time. For the same compound, the maximal effect (Emax) on B1-AR was 70 to 90%; on B2-AR (CHO-K1, CHO-K1 cells) it was 70 to 90%.

As for `Cc1n[nH]c2cccc([C@@H](O)CNCC(C)C)c12` [I-174], at B1-AR, the EC50 is more than 1 µM and the Emax was 70 to 90%. On B2-AR (CHO-K1 cells), the EC50 is 0.1 to 1 µM and the Emax was in the range of 50 to 70%.

With `CC(C)(C)NC[C@H](O)c1cccc2[nH]nc(C(F)F)c12` [I-175], on B1-AR, the EC50 was 0.1 to 1 µM and the maximal effect (Emax) lay within 70 to 90%. Further, at B2-AR (CHO-K1 cells), the EC50 was 0.1 to 1 µM and the maximal effect (Emax) is 70 to 90%.

Take `Cc1ncccc1[C@@H](O)CNC(C)(C)CO` [I-176]: the EC50 at B1-AR is more than 1 µM; on B2-AR (CHO-K1 cells), 0.1 to 1 µM. Further, the Emax lay in the range of 50 to 70% at B1-AR and 70 to 90% at B2-AR (CHO-K1, CHO-K1 cells).

Consider `Cc1ncccc1[C@@H](O)CNC1(C)CCC1` [I-177], for which the results for the EC50 at B1-AR and on B2-AR (CHO-K1 cells) were more than 1 µM and 0.01 to 0.1 µM, respectively. Further, the Emax on B1-AR is 70 to 90%; on B2-AR (CHO-K1, CHO-K1 cells) it was more than 90%.

Regarding `Cc1nc(N)c(Cl)cc1[C@@H](O)CNC1CC(F)(F)C1` [I-178], the EC50 on B1-AR is more than 1 µM; on B2-AR (CHO-K1 cells) it was 0.1 to 1 µM. Besides, the Emax at B1-AR was 50 to 70%; at B2-AR (CHO-K1, CHO-K1 cells), more than 90%.

Consider `Cc1nc(N)c(F)cc1[C@@H](CO)NC(C)(C)C` [I-179], for which the EC50 on B1-AR and on B2-AR (CHO-K1 cells) was more than 1 µM throughout. Also, the Emax on B1-AR and on B2-AR (CHO-K1 cells) was less than 50% in each case.

As for `Cc1nc(N)c(F)cc1[C@H](CO)NC(C)(C)C` [I-180], on B1-AR, the EC50 was more than 1 µM and the maximum response (Emax) was less than 50%. Further, on B2-AR (CHO-K1 cells), the EC50 is more than 1 µM and the maximum response (Emax) was less than 50%.

On to `Cc1ncccc1[C@@H](O)CNC1CC(F)(F)C1` [I-181], for which, at B1-AR, the EC50 is more than 1 µM and the maximal response (Emax) was less than 50%. Besides, on B2-AR (CHO-K1 cells), the EC50 is more than 1 µM and the maximal response (Emax) lay in the range of 50 to 70%.

As for `Cc1ncccc1[C@@H](O)CNC1CC(C)(C)C1` [I-182], at B1-AR, the EC50 was more than 1 µM and the maximum response (Emax) is less than 50%. Also, at B2-AR (CHO-K1 cells), the EC50 is more than 1 µM and the maximal effect (Emax) was in the range of 50 to 70%.

For the compound `Cc1ncccc1[C@@H](O)CNCC(C)C` [I-183], the EC50 at B1-AR and at B2-AR (CHO-K1 cells) was more than 1 µM throughout. For the same compound, the Emax on B1-AR is less than 50%; on B2-AR (CHO-K1, CHO-K1 cells), 50 to 70%.

With `Cc1ncccc1[C@@H](O)CNC(C)C` [I-184], the EC50 at B1-AR is more than 1 µM; on B2-AR (CHO-K1 cells), 0.1 to 1 µM. For the same compound, the maximal effect (Emax) at B1-AR fell in the range of 70 to 90%; on B2-AR (CHO-K1, CHO-K1 cells), 70 to 90%.

As for `Cc1nc(N)c(Cl)cc1[C@H](CO)NC1CC(F)(F)C1` [I-185], at B1-AR, the EC50 is more than 1 µM and the maximal response (Emax) is less than 50%. In addition, at B2-AR (CHO-K1 cells), the EC50 was more than 1 µM and the Emax is less than 50%.

Turning to `Cc1nc(N)c(Cl)cc1[C@@H](CO)NC1CC(F)(F)C1` [I-186], at B1-AR, the EC50 was more than 1 µM and the Emax was less than 50%. At B2-AR (CHO-K1 cells), the EC50 was more than 1 µM and the maximal response (Emax) was less than 50%.

With `Cc1ncccc1[C@@H](O)CNC1CCC1` [I-187], the figures for the EC50 on B1-AR and on B2-AR (CHO-K1 cells) were more than 1 µM and 0.1 to 1 µM, respectively. In addition, the Emax on B1-AR was 70 to 90%; at B2-AR (CHO-K1, CHO-K1 cells) it was 70 to 90%.

Consider `Cc1ncccc1[C@@H](O)CNC1(C)CC1` [I-188], for which the EC50 was 0.1 to 1 µM on B1-AR and 0.01 to 0.1 µM at B2-AR (CHO-K1 cells). Moreover, the Emax on B1-AR was more than 90%; on B2-AR (CHO-K1, CHO-K1 cells), more than 90%.

With `CC(C)(C)NC[C@H](O)c1ccc(Cl)c2[nH]nc(F)c12` [I-189], the EC50 at B1-AR and at B2-AR (CHO-K1 cells) was less than 0.01 µM each time. Besides, the Emax is more than 90% on B1-AR and 70 to 90% at B2-AR (CHO-K1, CHO-K1 cells).
